According to patent publication US9700046B2, “Herbicidal agents containing aclonifen” (BAYER CROPSCIENCE AG, priority 2012, dated 2017):

Tests used:
[1] = system: Lolium spp. resistant to HRAC group A; assay: Greenhouse experiment, post-emergence treatment of resistant ryegrass biotypes (HRAC group A resistant); format: in vivo; settings: post-emergence (PO, BBCH 11), about 3 weeks after application, dose g of AS/ha: aclonifen 225, pendimethalin 300, diflufenican 30, mixture 225 + 300 + 30, pinoxaden + cloquintocet-mexyl 60 + 15
Description: (§1) In the standard design of the test, seeds of various broad-leaved weed and weed grass biotypes (origins) were sown in a 8-13 cm diameter pot filled with natural soil of a standard field soil (loamy silt; non-sterile) and covered with a covering soil layer of about 1 cm. The pots were then cultivated in a greenhouse (12-16 h light, temperature day 20-22° C., night 15-18° C.) until the time of application. The pots were treated on a laboratory track sprayer with spray liquors comprising the compositions according to the invention, mixtures of the prior art or components used individually. Application of the active compounds or active compound combinations formulated as WG, WP, EC or otherwise was carried out at the appropriate growth stages of the plants. The amount of water used for spray application was 100-600 l/ha. After the treatment, the plants were returned to the greenhouses.
(§2) About 3 weeks after the application, the soil action or/and foliar action was assessed visually according to a scale of 0-100% in comparison to an untreated comparative group: 0%=no noticable effect compared to the untreated comparative group; 100%=full effect compared to the untreated comparative group.
(§3) 2. Post-emergence action against weeds: seeds of various broad-leaved weed and weed grass biotypes (origins) were sown in a 8-13 cm diameter pot filled with natural soil of a standard field soil (loamy silt; non-sterile) and covered with a covering soil layer of about 1 cm. […]
(§4) Insofar as herbicidal effects of the compositions according to the invention compared to mixtures of the prior art or compared to components applied individually against economically important mono- and dicotyledonous harmful plants were the center of attention, the synergistic herbicidal activities were calculated using Colby's formula (cf. S. R. Colby; Weeds 15 (1967), 20-22): E^C=(A+B+C)−(A×B+A×C+B×C)/100+(A×B×C)/10000 where: […]
(§5) Δ=difference (%) of the measured value (%) to the expected value (%) (measured value minus expected value). […]

[2] = system: Lolium spp. resistant to HRAC group B; assay: Greenhouse experiment, post-emergence treatment of resistant ryegrass biotypes (HRAC group B resistant); format: in vivo; settings: post-emergence (PO, BBCH 11), about 3 weeks after application, dose g of AS/ha: aclonifen 225, pendimethalin 300, diflufenican 30, mixture 225 + 300 + 30, mesosulfuron + iodosulfuron + mefenpyr 15 + 3 + 45
Description: as §1, §2, §3, §4, §5

Row | SMILES | herbicidal effect (visual assessment, scale 0-100% vs untreated), measured value [1] [%] | herbicidal effect (visual assessment, scale 0-100% vs untreated), measured value [2] [%]
1 | Nc1c([N+](=O)[O-])ccc(Oc2ccccc2)c1Cl [(A) aclonifen, 2-chloro-6-nitro-3-phenoxybenzenamine] | 25 | 50
2 | CCC(CC)Nc1c([N+](=O)[O-])cc(C)c(C)c1[N+](=O)[O-] [(B) pendimethalin, N-(1-ethylpropyl)-3,4-dimethyl-2,6-dinitrobenzenamine] | 5 | 0
3 | O=C(Nc1ccc(F)cc1F)c1cccnc1Oc1cccc(C(F)(F)F)c1 [(C) diflufenican, N-(2,4-difluorophenyl)-2-[3-(trifluoromethyl)phenoxy]-3-pyridinecarboxamide] | 10 | 5
